Test results reported in US20150359810A1, “METHODS FOR TREATING EPSTEIN-BARR VIRUS (EBV) ASSOCIATED CANCERS USING ORAL FORMULATIONS OF 5-AZACYTIDINE” (Celgene Corporation, priority 2014, published 2015).
“Also recorded” adds a separate entry of the source.

What was measured:
DNA methylation in PBMCs = DNA methylation in PBMCs of patients by Infinium Methylation27/Methylation450 Array; type: in vivo, human; details: Arm C alone; for patients with DNA hypomethylation in PBMCs: Arm A with CBDCA
BHRF1 = test: EBV gene expression in RAEL cells, QuantiGene Multiplex 2.0 assay; type: cell-based, Epstein-Barr Virus; details: 0.3 μM AZA once a day for 4 days, days 1 through 9, listed as AZA
Method: (§1) Assay Procedure: The RAEL and Ramos Burkitt's lymphoma cell lines were treated with vehicle (water) or AZA once a day (qd) for the number of days indicated in FIG. 6 and FIG. 15. For the experiment described in FIG. 6, cells were collected on days 1 through 9 (singlicate sample per condition per time point); at each time point, an aliquot of cells was used to purify deoxyribonucleic acid (DNA) (DNeasy Blood & Tissue Kit; Qiagen; Valencia, Calif.) for EBV DNA (Z and R promoters) methylation analysis (FIG. 7; FIG. 8) at EpigenDx (Hopkinton, Mass.), while a second aliquot of cells was lysed in QuantiGene Lysis Buffer for gene expression analysis (FIG. 9 to FIG. 14) using the QuantiGene Multiplex 2.0 assay (Affymetrix; Santa Clara, Calif.). The pyrosequencing assay used at EpigenDx to assess the methylation status of cytosine-phosphate-guanine dinucleotides (CpGs) 1-3 of the EBV Z promoter (Li L, Su X, Choi G, Cao Y, Ambinder R, Tao Q. Methylation profiling of Epstein-Barr virus immediate-early gene promoters, BZLF1 (EBV gene encoding for the Zta transcription factor) and BRLF1 (EBV gene encoding for the Rta transcription factor) in tumors of epithelial, NK- and B-cell origins. BMC Cancer 2012 Mar. 29; 12:125) was ADS3981-FS1, while that for CpGs 16-20 of the EBV R promoter (Li, 2012) was ADS3984-FS2.
(§2) The RAEL EBV^+ Burkitt's lymphoma cell line was treated with vehicle or 0.3 μM AZA once a day for 4 days (FIG. 6). Cells were harvested on days 1 through 9 to assess the effects of AZA on EBV promoter (Zp and Rp) methylation, as well as EBV gene expression. […] Zp and Rp methylation remained low for the remainder of the experiment, even in the absence of continued AZA treatment (FIG. 7; FIG. 8). In parallel with the effects of AZA on EBV promoter methylation, AZA induced expression of EBV genes.

EBNA1 = test: as above; type: cell-based, Epstein-Barr Virus; details: 0.3 μM AZA once a day for 4 days, days 1 through 9, listed as AZA
Method: as §1, §2

EBNA2 = test: as above; type: cell-based, Epstein-Barr Virus; details: 0.3 μM AZA once a day for 4 days, days 1 through 9, listed as AZA
Method: as §1, §2

BLLF1 = test: as above; type: cell-based, Epstein-Barr Virus; details: 0.3 μM AZA once a day for 4 days, days 1 through 9
Method: as §1, §2

BRLF1 = test: as above; type: cell-based, Epstein-Barr Virus; details: 0.3 μM AZA once a day for 4 days, days 1 through 9, listed as AZA
Method: as §1, §2

LMP1 = test: as above; type: cell-based, Epstein-Barr Virus; details: 0.3 μM AZA once a day for 4 days, days 1 through 9, listed as AZA
Method: as §1, §2

[1] = test system: EBV proteins EBNA1, EBNA2, Zta, and LMP1 in RAEL cell line; test: EBV protein expression by Western blotting in RAEL cell line; type: cell-based, Epstein-Barr virus; details: cells collected on day 6
[2] = test system: EBV R promoter (CpGs 16-20); test: EBV promoter methylation by pyrosequencing in RAEL cells (R promoter); type: cell-based, Epstein-Barr Virus
Method: as §1, §2

[3] = PK exposure of AZA in patients of the clinical study; type: in vivo; details: human, plasma; oral AZA 200 mg or 300 mg, alone or in combination; read-out: AUCinf of patients in whom decreases in DNA methylation were observed
higher-risk MDS = details: Phase III study; administered subcutaneously; subjects with higher-risk MDS; cited from earlier work
[4] = test system: DNA methylation (LINE-1) in PBMC DNAs; test: LINE-1 DNA methylation in PBMC DNAs of patients; type: in vivo, human; details: Arm C patients, 200 mg oral AZA alone; Days 1, 8, and 15 of 21-day cycle
Method: In one embodiment, PBMC DNA was used for assessing changes in DNA methylation, using assays such as LINE-1 methylation, %5 mdC mass spec, Infinium® Methylation27 Array, and Infinium® Methylation450 Array. In one study, DNA methylation (LINE-1) in PBMC DNAs from patients in clinical studies described in Example 1, dosed with 200 mg oral AZA alone or in combination with CDBCA or ABX, was measured on Days 1, 8, and 15 of 21-day cycle. […] In one study, %5 mdC in PBMC DNAs from patients in clinical studies described in Example 1, dosed with 200 mg oral AZA alone or in combination with CDBCA or ABX, was measured on Days 1, 8, and 15 of 21-day cycle. In one study, methylation levels were measured on Days 1, 8, and 15 of 21-day cycle using Infinium® Methylation27 Array (patients dosed with 200 mg oral AZA alone or in combination with CDBCA or ABX) and density profiles of average methylation levels were analyzed. […] In another study, methylation levels were measured using Infinium® Methylation450 Array (patients dosed with 300 mg oral AZA alone or in combination with CDBCA or ABX) and density profiles of average methylation levels were analyzed, as well as % change of hypermethylated loci (beta >0.7) upon treatment.

[5] = test system: EBV Z promoter (CpGs 1-3); test: EBV promoter methylation by pyrosequencing in RAEL cells (Z promoter); type: cell-based, Epstein-Barr Virus
Method: as §1, §2

[6] = test system: EBV proteins EBNA1, EBNA2, Zta, and LMP1 in Ramos cell line; test: EBV protein expression by Western blotting in Ramos cell line; type: cell-based, Epstein-Barr virus; details: AZA once a day for 1 or 2 days, cells collected on day 6, listed as AZA
Method: as §1, with “ADS3984-FS2. […]” for “ADS3984-FS2.”

Zta = details: RAEL cells; 72 hours; AZA 0.3 or 1.0 uM, ROMI 0.5, 1.0, or 2.0 nM, or combination
[7] = RAEL EBV+ Burkitt's lymphoma cell line, 0.3 μM AZA once a day for 4 days, harvested days 1 through 9, listed as AZA
[8] = RAEL, 0.3 μM AZA once a day for 4 days
[9] = RAEL, after 0.3 μM AZA once a day for 4 days, up to day 9

## Nc1ncn([C@@H]2O[C@H](CO)[C@@H](O)[C@H]2O)c(=O)n1 [5-azacytidine, 4-amino-1-β-D-ribofuranosyl-1,3,5-triazin-2(1H)-one]
DNA methylation in PBMCs; 200 mg oral AZA, Arm A with CDBCA, Arm B with ABX, Days 1, 8, and 15 of 21-day cycle
  change in DNA methylation in PBMCs upon treatment (Infinium Methylation27 Array, density profiles of average methylation levels): decreases in hypermethylated loci (beta >0.7) were observed
DNA methylation in PBMCs; 200 mg oral AZA, Arm B with ABX
  patients with DNA hypomethylation in PBMCs: 5/6
DNA methylation in PBMCs; 300 mg oral AZA
  patients with DNA hypomethylation in PBMCs: 3/3
BHRF1
  ribonucleic acid expression of BHRF1: strongly induced expression
EBNA1
  ribonucleic acid expression of EBNA1: strongly induced expression
EBNA2
  ribonucleic acid expression of EBNA2: strongly induced expression
BLLF1
  ribonucleic acid expression of BLLF1: did not affect the expression of BLLF1 as much as other genes
BRLF1
  ribonucleic acid expression of BRLF1: strongly induced expression
LMP1
  ribonucleic acid expression of LMP1: strongly induced expression
[1]; RAEL (EBV+) cell line, AZA once a day for 1 or 2 days, listed as AZA
  expression of the EBV proteins EBNA1, EBNA2, Zta, and LMP1: induces expression of EBV proteins; also recorded: dose-dependently induced expression
[1]; RAEL, Western blotting
  induction of EBV proteins, AZA for 2 days compared with AZA for 1 day: greater induction of EBV proteins
[2]; [7]
  Rp methylation: causes the demethylation; also recorded: precipitously decreased
[2]; [8]
  time to maximal hypomethylation of Rp: ≤ 4 days
[2]; [9]
  Rp methylation for the remainder of the experiment, in the absence of continued AZA treatment: remained low
[3]
  AUC(0-inf): > 350 ng·h/mL
higher-risk MDS
  survival and time to AML transformation or death: significantly prolonged survival and time to AML transformation or death
[4]
  DNA methylation (LINE-1) in PBMC DNAs: Decreases in LINE-1 methylation were observed for two patients
[5]; [7]
  Zp methylation: causes the demethylation; also recorded: precipitously decreased
[5]; [8]
  time to maximal hypomethylation of Zp: ≤ 4 days
[5]; [9]
  Zp methylation for the remainder of the experiment, in the absence of continued AZA treatment: remained low
[6]
  expression of the EBV proteins EBNA1, EBNA2, Zta, and LMP1: not in the EBV-negative (EBV−) Ramos
Zta
  Zta expression (Zta band intensity with GAPDH as house-keeping protein): slight increase in Zta expression
